The results in this text go back to PubChem BioAssay AID463199 (Broad Institute, 2010).

SMILES strings stand for the structures. The source made the active and inactive calls.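 The calls were made as follows: active = AC50, the dose giving half-maximal effect, exceeds a fixed cutoff for a compound that rescues yeast growth under heat; inactive = the rest, inconclusive results apart.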 Where only a bound is given, the exact number is not on record here.

The subject of this assay is S. cerevisiae Burl-1 ts mutant growth, BacTiter-Glo, 38.5C 24 h. The assay is described as follows: restored growth of temperature-sensitive Burl-1 yeast – whole organism, S. cerevisiae, Burl-1 ts mutant, luminescence, counter-screen for SUMOylation pathway inhibitor project, dose response (AID 463199).
The AC50 is the midpoint of the concentration-response curve, whichever way the signal moves. As to `Cc1ccc(S(=O)(=O)Oc2ccccc2N2C(=O)C3CC=CCC3C2=O)cc1` (stereo unspecified), the AC50 is > 42 µM (inactive).

As for `O=c1c2ccccc2nc(SCc2ccc([N+](=O)[O-])cc2)n1CCCO`, the AC50 is > 42 µM (inactive). As for `Cc1cnc(NC(=O)CN2CCN(c3ccccc3F)CC2)s1`, the AC50 is > 42 µM (inactive). With `O=C(CCN1C(=O)S/C(=C/c2ccccc2)C1=O)Nc1ccc(O)c(C(=O)O)c1`, the AC50 is > 42 µM (inactive). Take `O=C1CCc2cc(S(=O)(=O)N3CCC(C(=O)NC4CCCC4)CC3)ccc2N1`: the AC50 was > 42 µM (inactive).

`CCNc1nc(NCC)nc(SCCOC(=O)Nc2ccccc2)n1`: the AC50 is > 42 µM (inactive).

For `CCN(CC)C1CCN(C(=O)c2cc(COc3ccc(-n4cncn4)cc3)on2)C1` (stereo unspecified), the AC50 is > 42 µM (inactive).

For the molecule `CC1(C)c2[nH]c3ccccc3c2C[C@H]2C(=O)N(Cc3cccc(F)c3)C(=O)N21`, the AC50 is > 42 µM (inactive). Under `CCOC(=O)CS(=O)(=O)c1ccc2ccccc2c1` stands > 42 µM (inactive); under `Cc1cc(C)n(CCCNC(=O)CN(C)S(=O)(=O)c2ccc(Cl)cc2)n1`, > 42 µM (inactive); under `CCOc1cc(/C=N/NC(=O)C(=O)N/N=C/c2ccc(O)c(OCC)c2)ccc1O`, > 42 µM (inactive). Turning to `COC(=O)C1(Cc2cc(-c3ccccc3)no2)CCN(C(=O)OC(C)(C)C)CC1`, the AC50 was > 42 µM (inactive). For `O=C(NCc1cccc(F)c1F)C1CCC(=O)N(C2CC2)C1` (stereo unspecified), the AC50 is > 42 µM (inactive). Take `O=C(NCCCN1CCN(c2ccccc2F)CC1)Nc1ccccc1[N+](=O)[O-]`: the AC50 is 25.4 µM.

For the molecule `COc1ccc(NC(=O)c2ccc(COc3ccccc3OC)o2)cc1OC`, the AC50 is > 42 µM (inactive).

Take `CCCc1cc(=S)n2c([nH]c3ccccc32)c1C#N`: the AC50 was > 42 µM (inactive). `Cc1ccc(-n2c(-c3ccco3)nc3c(cnn3-c3ccc(C)cc3)c2=O)cc1`: the AC50 is > 42 µM (inactive).

Take `Cc1ccc(NS(=O)(=O)c2c(C)[nH]c(C)c2C(=O)N2CCCCC2)c(Cl)c1`: the AC50 is > 42 µM (inactive). In the case of `COC(=O)Nc1ccc(S(=O)(=O)N2CCCC(C(=O)NC3CCS(=O)(=O)C3)C2)cc1` (stereo unspecified), the AC50 is > 42 µM (inactive). Then `Cc1ccnc(NC(=O)CC(c2ccccc2)c2ccccc2)n1`, with > 42 µM (inactive).

On to `CC(SC#N)C(=O)C12CC3CC(CC(C3)C1)C2` (stereo unspecified), for which the AC50 is > 42 µM (inactive). Regarding `O=C(CSc1cccc2cccnc12)Nc1cc(C(=O)O)cc(C(=O)O)c1`, the AC50 was > 42 µM (inactive). `COCCCn1c2nc3ccccc3nc2c2c(=O)n(Cc3ccc(Cl)cc3)cnc21`: the AC50 is > 42 µM (inactive). Then `CN(C)C(=O)CCN1CCOCC1`, with > 42 µM (inactive); and `CC(CN1CCCCCC1)C(=O)NN` (stereo unspecified), with > 42 µM (inactive); and `CS(=O)(=O)N1CCCC(C(=O)NCc2ccco2)C1` (stereo unspecified), with > 42 µM (inactive).

For `COc1ccc(C2C3=C(CC(C)(C)CC3=O)Nc3n[nH]c(C)c32)cc1` (stereo unspecified), the AC50 is > 42 µM (inactive).

For the molecule `CCn1nc(C(=O)OCc2cccc(S(=O)(=O)N(C)C)c2)c2ccccc2c1=O`, the AC50 is > 42 µM (inactive). Consider `COC(=O)c1cc(N=Nc2c(C)[nH]c3ccccc23)cc(C(=O)OC)c1`, for which the AC50 was > 42 µM (inactive).

For the molecule `CSc1ncccc1C(=O)NC1CCCc2c1cnn2-c1ccc(C)c(C)c1` (stereo unspecified), the AC50 was > 42 µM (inactive).

For the molecule `CCOc1ccc(NC(=O)CC2C(=O)N(c3ccccc3)C(=S)N2Cc2ccccn2)cc1` (stereo unspecified), the AC50 is > 42 µM (inactive). In the case of `CN(C)S(=O)(=O)c1cccc(NC(=O)COc2nc3ccccc3nc2N2CCOCC2)c1`, the AC50 is > 42 µM (inactive).

Take `O=C(c1cc(-c2ccc(Cl)cc2)n(-c2ccc(Cl)cc2)n1)N1CCOCC1`: the AC50 was > 42 µM (inactive).

Consider `CC(C)(C)NC(=O)CN(C(=O)CCC(=O)Nc1nccs1)c1ccc2c(c1)OCCO2`, for which the AC50 was > 42 µM (inactive). As for `COc1ccc(NC(=O)C2CCCN(C(=O)Nc3cccc(OC)c3)C2)cc1` (stereo unspecified), the AC50 is > 42 µM (inactive). `COc1ccc(NC2CCCN(C(=O)c3csc(C)n3)C2)cc1` (stereo unspecified): the AC50 was > 42 µM (inactive). Under `Cc1cc(S(=O)(=O)N2CCCC(N3CCOCC3)C2)c(C)cc1Cl` (stereo unspecified) stands > 42 µM (inactive); under `CC(C)COc1ccc(C(=O)Nc2ccc([N+](=O)[O-])cc2)cc1`, > 42 µM (inactive). In the case of `CC(=O)c1cc(C)ccc1OC(=O)c1ccco1`, the AC50 is > 42 µM (inactive).

For `COc1ccc2c(c1)[C@@]13CCC=C[C@H]1[C@@H](C2)NCC3`, the AC50 was > 42 µM (inactive).

`COc1ccc2cc(C#N)c(Nc3cccc(F)c3)nc2c1`: the AC50 was > 42 µM (inactive).

Take `COC(=O)c1ccc(CSc2nc3ccccc3c(=O)n2CC(C)C)o1`: the AC50 is > 42 µM (inactive). On to `CC(NC(=O)c1cnc2n(c1=O)CCS2)c1ccccc1` (stereo unspecified), for which the AC50 was > 42 µM (inactive). Take `O=C(NCCc1cnccn1)C1CCC(=O)N(Cc2ccc(Cl)cc2)C1` (stereo unspecified): the AC50 was > 42 µM (inactive). `CN(C(=O)COC(=O)c1cc2ccccc2cc1O)c1c(N)n(Cc2ccccc2)c(=O)[nH]c1=O`: the AC50 is > 42 µM (inactive). `CN(C(=O)COC(=O)c1cc(-c2ccc(Cl)s2)nc2ccccc12)C1CCS(=O)(=O)C1` (stereo unspecified): the AC50 was > 42 µM (inactive). Then `CCn1c(=O)n(CC)c2cc(NC(=O)c3ccccc3Cl)ccc21`, with > 42 µM (inactive); and `COc1cccc(/C=N/NC(=O)CCn2cnc3ccccc32)c1`, with > 42 µM (inactive); and `Cc1[nH]c(C)c(S(=O)(=O)NCC(C)c2ccccc2)c1C(=O)N1CCCCC1` (stereo unspecified), with > 42 µM (inactive). As to `COc1cccc(/C=C/C(=O)OCC(=O)Nc2ccc(Cl)cn2)c1`, the AC50 was > 42 µM (inactive). With `C/C(CC(=O)Nc1cccnc1)=N\NC(=O)C(C)Oc1ccc(Cl)cc1Cl` (stereo unspecified), the AC50 is > 42 µM (inactive). Take `CN1CCN(C(=O)CCN2C(=O)/C(=C/c3ccccc3Cl)SC2=S)CC1`: the AC50 is > 42 µM (inactive). Under `COC(=O)C1(Cc2ccc(O)cc2)OC(=O)C(O)=C1c1ccc(O)cc1` (stereo unspecified) stands > 42 µM (inactive); under `COc1ccc(S(=O)(=O)NCC(=O)N(CC(=O)NCC2CCCO2)c2ccccc2C)cc1` (stereo unspecified), > 42 µM (inactive).

For `CCOC(=O)c1oc2ccccc2c1COC(=O)CNC(=O)c1cccc(C)c1`, the AC50 is > 42 µM (inactive). With `Cc1n[nH]c(C)c1S(=O)(=O)N(CC(=O)NC1CCCC1)c1ccc(C(C)C)cc1`, the AC50 is 38.7 µM. As for `CN(C(=O)c1ccc(-c2nn(C)c(=O)c3ccccc23)cc1)C1CCCCC1`, the AC50 is > 42 µM (inactive). Then `Cc1nc2ccc(NC(=O)c3ccco3)cc2s1`, with > 42 µM (inactive).

Take `CCN1CCCC(NC(=O)c2scc3c2CCCC3)C1` (stereo unspecified): the AC50 was > 42 µM (inactive). As for `COc1c(C)cc(S(=O)(=O)NC2CC(C)(C)NC(C)(C)C2)c(C)c1C`, the AC50 is > 42 µM (inactive). As for `Cc1cc(C)c2cc(C)c3nnc(SCC(=O)NCc4ccc5c(c4)OCO5)n3c2c1`, the AC50 is > 42 µM (inactive). With `CCOc1cc(C(N)=O)cc(Cl)c1OCc1ccccc1`, the AC50 was > 42 µM (inactive). Turning to `CCN(CC)/C(=N\S(=O)(=O)c1ccc(F)cc1)c1ccccc1`, the AC50 was > 21 µM (inactive). Then `N#C/C(=N\Nc1cccc(F)c1)C(=N)N1CCCCCC1`, with > 42 µM (inactive); and `COc1ccc(C(=O)CSc2nnc(CNC(=O)c3ccccc3)n2C)cc1`, with > 42 µM (inactive); and `COc1ccc2c(c1)c(CC(=O)OCC(N)=O)c(C)n2C(=O)c1ccc(Cl)cc1`, with > 42 µM (inactive). `O=c1c2ccccc2ncn1Cc1ccc2c(c1)OCO2`: the AC50 is > 42 µM (inactive).

On to `CCNC(=O)COc1ccc(S(=O)(=O)Nc2ccccc2)cc1`, for which the AC50 is > 21 µM (inactive). Then `Cc1[nH]nc2c1C(c1cccs1)C1=C(CC(C)(C)CC1=O)N2` (stereo unspecified), with > 42 µM (inactive); and `COc1ccc2c(c1)OC[C@H]1[C@H]2N2C(=O)c3cc(C)ccc3NC(=O)[C@@]2(C)[C@H]1c1ccccc1`, with > 42 µM (inactive); and `O=c1c2c3c(sc2n2cnnc2n1-c1ccccc1)N(Cc1ccccc1)CCC3`, with > 42 µM (inactive). For the molecule `CS(=O)(=O)c1ccc(Cl)c(C(=O)O)c1`, the AC50 was > 42 µM (inactive). `CN(C)C(=O)CSc1nc2ccc(N3C(=O)c4ccccc4C3=O)cc2s1`: the AC50 is > 42 µM (inactive). Regarding `CCC(C)NCCOc1ccccc1C` (stereo unspecified), the AC50 is > 42 µM (inactive). Consider `CC(=O)N(C(C)=O)C1=C(C#N)C2(CCCCC2)Cc2ccccc21`, for which the AC50 is > 42 µM (inactive). As to `COC(=O)c1c(C)n(Cc2ccc3c(c2)OCO3)c2ccc(O)cc12`, the AC50 was > 42 µM (inactive). As to `c1ccc(CCCc2nc(-c3cccnc3)no2)cc1`, the AC50 is > 42 µM (inactive). In the case of `CCCCCCNc1c(C(=O)OCC)c(=O)[nH]c2ccccc12`, the AC50 is > 42 µM (inactive). Then `Cc1ccc(N2CN(CCc3ccccc3)CNC2=S)cc1`, with > 42 µM (inactive); and `CC1(OC(=O)CCc2ccccc2)C(=O)C=C2C=C(c3ccc(C#N)cc3)N(C3CCCC3)C=C2C1=O` (stereo unspecified), with > 42 µM (inactive).

On to `NS(=O)(=O)c1ccc(CCNC(=O)c2ccc([N+](=O)[O-])s2)cc1`, for which the AC50 is > 42 µM (inactive). As for `C=C1C(O)[C@@H]2O[C@]3(CC[C@H](/C=C/C(C)[C@@H]4CC(C)=CC5(O[C@H](C[C@@](C)(O)C(=O)O)CCC5O)O4)O3)CC[C@H]2O[C@@H]1C(O)CC(C)[C@H]1OC2(CCCCO2)CCC1C` (stereo partly specified), the AC50 is 4.06 µM.

In the case of `CN(C)C(=O)CNC(=O)C1CCCCC1`, the AC50 is > 42 µM (inactive). In the case of `COc1ccc(C2NC(=O)c3ccccc3O2)cc1` (stereo unspecified), the AC50 was > 42 µM (inactive).

With `N#Cc1cc2c(nc1SCc1cccnc1)CCC2`, the AC50 is > 42 µM (inactive). Take `CCN(CC)CC(=O)Nc1ccc(Oc2ccc(NC(=O)CN(CC)CC)cc2)cc1`: the AC50 was > 42 µM (inactive).
